# From ChEMBL document CHEMBL1201862, “PubChem BioAssay data set” (2004)
#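 Growth conditions: 96-well plates. Treatment: test compound, 48 hours, 5 concentrations. Analysis: linear interpolation between bracketing concentrations; unreached endpoints set to highest concentration. GI50 marks 50% less growth.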 Activity calls are given as the source filed them. No stated cut-off is given here; in the data, active = GI50 up to about 1.1 µM and inactive = higher.
# Key:
# Test in all cases: NCI tumour cell line growth inhibition, 48 h
# EKVX = system: EKVX
# HCC 2998 = system: HCC 2998
# HCT-116 = system: HCT-116
# HCT-15 = system: HCT-15
# HOP-92 = system: HOP-92
# IGROV-1 = system: IGROV-1
# KM12 = system: KM12
# MCF7 = system: MCF7
# MDA-MB-435 = system: MDA-MB-435
# NCI-H226 = system: NCI-H226
# NCI-H23 = system: NCI-H23
# NCI-H522 = system: NCI-H522
# NCI/ADR-RES = system: NCI/ADR-RES
# OVCAR-3 = system: OVCAR-3
# SK-OV-3 = system: SK-OV-3
# SNB-75 = system: SNB-75
# SR = system: SR
# UACC-257 = system: UACC-257
# UACC-62 = system: UACC-62
# MOLT-4 = system: MOLT-4
Structure (SMILES),GI50 (EKVX),GI50 (HCC 2998),GI50 (HCT-116),GI50 (HCT-15),GI50 (HOP-92),GI50 (IGROV-1),GI50 (KM12),GI50 (MCF7),GI50 (MDA-MB-435),GI50 (NCI-H226),GI50 (NCI-H23),GI50 (NCI-H522),GI50 (NCI/ADR-RES),GI50 (OVCAR-3),GI50 (SK-OV-3),GI50 (SNB-75),GI50 (SR),GI50 (UACC-257),GI50 (UACC-62),GI50 (MOLT-4)
Cc1ccc(/C(C#N)=C/c2cccc([N+](=O)[O-])c2)cc1,29.5 µM (inactive),> 100 µM (inactive),76.2 µM (inactive),> 100 µM,32.2 µM (inactive),80.5 µM (inactive),> 100 µM (inactive),> 100 µM (inactive),> 100 µM (inactive),> 100 µM (inactive),> 100 µM (inactive),> 100 µM (inactive),> 100 µM (inactive),> 100 µM (inactive),61.9 µM (inactive),19.5 µM (inactive),> 100 µM (inactive),> 100 µM (inactive),71.1 µM (inactive),
COc1ccc(/C=N/c2c(O)ccc3ccccc23)cc1OC,> 100 µM (inactive),> 100 µM (inactive),97.9 µM (inactive),> 100 µM,1.95 µM (inactive),2.81 µM (inactive),> 100 µM (inactive),> 100 µM (inactive),18.9 µM (inactive),> 100 µM (inactive),31.8 µM (inactive),15.6 µM (inactive),> 100 µM (inactive),5.14 µM (inactive),> 100 µM (inactive),47.2 µM (inactive),> 100 µM (inactive),80.5 µM (inactive),72.6 µM (inactive),
O=c1cc(-c2ccccc2)c2ccc(O)c(CN(CCCl)CCCl)c2o1,25.5 µM (inactive),12.3 µM (inactive),19.1 µM (inactive),22.1 µM,20.8 µM (inactive),15.5 µM (inactive),17.9 µM (inactive),17.2 µM (inactive),19.9 µM (inactive),17.9 µM (inactive),19.5 µM (inactive),14.7 µM (inactive),32.3 µM (inactive),19.3 µM (inactive),,15.7 µM (inactive),11.1 µM (inactive),16.4 µM (inactive),16.9 µM (inactive),5.75 µM (inactive)
CCOC(=O)CCc1c(C)nc2c(C)c3c([nH]c4ccc(Cl)cc43)c(C)c2c1O,10.2 µM (inactive),14.1 µM (inactive),10.9 µM (inactive),12.2 µM,15.8 µM (inactive),10.2 µM (inactive),11.7 µM (inactive),7 µM (inactive),9.18 µM (inactive),17.1 µM (inactive),19.2 µM (inactive),6.81 µM (inactive),17.3 µM (inactive),,,4.37 µM (inactive),6.55 µM (inactive),6 µM (inactive),,6.01 µM (inactive)
O=C1CC(=O)NC(NN2C(=O)CSC2C(=O)c2ccco2)=N1 (stereo not drawn),,> 100 µM (inactive),> 100 µM (inactive),> 100 µM,> 100 µM (inactive),> 100 µM (inactive),3.05 µM (inactive),> 100 µM (inactive),> 100 µM (inactive),> 100 µM (inactive),> 100 µM (inactive),> 100 µM (inactive),> 100 µM (inactive),> 100 µM (inactive),> 100 µM (inactive),12.2 µM (inactive),> 100 µM (inactive),> 100 µM (inactive),> 100 µM (inactive),> 100 µM (inactive)
